# Results: patent US20050101595A1, “N-containing cycloalkyl-substituted amino-thiazole derivatives and pharmaceutical compositions for inhibiting cell proliferation and methods for their use” (PFIZER INC., priority 2003, published 2005)
# Like-named read-outs stand apart in the source and are kept apart here.
# How the values were obtained:
# CDK2/Cyclin A = CDK2/Cyclin A (Homo sapiens, UniProt P24941); test: Inhibition of CDK2/Cyclin A Retinoblastoma Kinase Activity; type: biochemical; conditions: for Ki: apparent Ki, CDK2/proteolyzed cyclin A, Rb fragment substrate, 25 μM ATP; for CDK2 % Inhibition At 0.03 μM: Table 2
# Summary of the method: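 Radiometric filter-binding readout of phosphate transfer to an Rb substrate fragment by purified CDK2/truncated cyclin A at 10 or 19 nM. Run at pH 7.4 with 25 μM ATP, 30 °C, 60–75 min, linear rates; background without enzyme subtracted, Ki from competitive-inhibition models.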
# HCT-116 cell line = test: Inhibition of cell growth, tetrazolium salt (MTT) assay; type: cell-based; conditions: for IC50: Homo sapiens, HCT-116, 120 h, MTT, three to five days, read-out: HCT-116 IC50; for HCT-116 % Inhibition at 0.25 μM: 0.25 μM compound
# Summary of the method: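 Growth inhibition by MTT reduction at 540 nm (0.2 mg/mL, 4 h at 37° C, formazan dissolved in DMSO), normalized to cells given only 0.5% v/v DMSO. HCT-116 cultures in McCoy's 5A were dosed 4 h post-plating and kept three to five days at 37° C, 5% CO2.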
# [1] = biological target: human CDK4 and genetically truncated (1-264) cyclin D3 (Homo sapiens, UniProt P11802); test: Inhibition of CDK4/Cyclin D Retinoblastoma Kinase Activity; type: biochemical; conditions: for Ki: apparent Ki, CDK4/truncated cyclin D3, Rb fragment substrate, 25 μM ATP
# Summary of the method: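 Apparent Ki values come from competitive or competitive tight-binding inhibition fits of background-corrected 32P/33P incorporation into His-tagged Rb fragment (386-928), captured on nitrocellulose. Reaction: 5 nM insect-cell-expressed human CDK4 with cyclin D3 (1-264), 25 μM ATP, pH 7.4 HEPES, 2% DMSO, 30° C., 20 min, extended to 60 min for tight-binding inhibitors.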
# [2] = 0.1 μM compound, HCT-116, Table 3
# [3] = 0.03 μM compound, Table 4, 0.03 µM
# Sequence of human CDK4 and genetically truncated (1-264) cyclin D3 (P11802 whole entry, the tested form may be a part): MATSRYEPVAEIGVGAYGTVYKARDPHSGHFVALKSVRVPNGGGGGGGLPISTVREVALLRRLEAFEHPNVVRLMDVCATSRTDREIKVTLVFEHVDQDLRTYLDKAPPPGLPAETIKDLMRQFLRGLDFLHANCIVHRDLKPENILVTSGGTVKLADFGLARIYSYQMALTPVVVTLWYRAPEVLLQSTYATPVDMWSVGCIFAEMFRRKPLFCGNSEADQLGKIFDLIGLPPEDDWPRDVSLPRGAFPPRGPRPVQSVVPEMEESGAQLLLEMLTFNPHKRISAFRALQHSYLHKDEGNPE
# Sequence of human CDK4 and genetically truncated (1-264) cyclin D3 (P30281 1-264 partner): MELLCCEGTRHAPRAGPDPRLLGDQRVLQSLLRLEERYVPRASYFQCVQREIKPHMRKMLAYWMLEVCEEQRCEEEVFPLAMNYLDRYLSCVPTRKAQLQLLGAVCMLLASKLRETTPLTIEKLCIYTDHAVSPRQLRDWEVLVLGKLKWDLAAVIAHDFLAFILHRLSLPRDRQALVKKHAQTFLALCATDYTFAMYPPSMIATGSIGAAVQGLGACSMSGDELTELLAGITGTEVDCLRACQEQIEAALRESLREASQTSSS
compound,measurement,setting,value
"Nc1nc(NC2CCN(C(=O)c3cccc([N+](=O)[O-])c3)CC2)sc1C(=O)c1c(F)cccc1F [Example C12, 1-(4-Amino-2-{1-[1-(3-nitro-phenyl)-methanoyl]-piperidin-4-ylamino}-thiazol-5-yl)-1-(2,6-difluoro-phenyl)-methanone]",Ki,CDK2/Cyclin A,59 nM
same,IC50,HCT-116 cell line; first HCT-116 column (c4),220 nM
same,IC50,HCT-116 cell line; second HCT-116 column (c5),510 nM
same,Ki,[1],12 nM
CN1CCN(Cc2ccc(S(=O)(=O)N3CCC(Nc4nc(N)c(C(=O)c5c(F)cccc5F)s4)CC3)cc2)CC1 [Example J7],Ki,CDK2/Cyclin A,1.9 nM
same,IC50,HCT-116 cell line; first HCT-116 column (c4),130 nM
same,IC50,HCT-116 cell line; second HCT-116 column (c5),300 nM
same,Ki,[1],0.78 nM
COc1cc(NC(=O)N2CCC(Nc3nc(N)c(C(=O)c4c(F)cccc4F)s3)CC2)cc(OC)c1OC [Example O44],CDK2 % Inhibition At 0.03 μM,CDK2/Cyclin A; 0.03 μM compound,22%
same,HCT-116 % Inhibition at 0.25 μM,"HCT-116 cell line; HCT-116, Table 2",29%
same,CDK4 % Inhibition at 0.03 μM,"[1]; 0.03 μM compound, Table 2",12%
Cn1nc(C(C)(C)C)cc1C(=O)N1CCC(Nc2nc(N)c(C(=O)c3c(F)cccc3F)s2)CC1 [Example R60],CDK2 % Inhibition at 0.03 μM,CDK2/Cyclin A; at 0.03 μM,45%
same,HCT-116 % Inhibition at 0.1 μM,"HCT-116 cell line; HCT-116 cells, at 0.1 μM",0%
same,HCT-116 5 Inhibition at 0.25 μM,HCT-116 cell line; HCT-116 cells,29
same,CDK4 % Inhibition at 0.03 μM,[1]; at 0.03 μM,69%
Nc1nc(NC2CCN(C(=O)c3cccc(C(F)(F)F)c3)CC2)sc1C(=O)c1c(F)cccc1F [Example R139],CDK2 % Inhibition at 0.03 μM,CDK2/Cyclin A; at 0.03 μM,50%
same,HCT-116 % Inhibition at 0.1 μM,"HCT-116 cell line; HCT-116 cells, at 0.1 μM",20%
same,HCT-116 5 Inhibition at 0.25 μM,HCT-116 cell line; HCT-116 cells,62
same,CDK4 % Inhibition at 0.03 μM,[1]; at 0.03 μM,75%
Nc1nc(NC2CCN(C(=O)c3c(F)ccc(F)c3F)CC2)sc1C(=O)c1c(F)cccc1F [Example R37],CDK2 % Inhibition at 0.03 μM,CDK2/Cyclin A; at 0.03 μM,27%
same,HCT-116 % Inhibition at 0.1 μM,"HCT-116 cell line; HCT-116 cells, at 0.1 μM",0%
same,HCT-116 5 Inhibition at 0.25 μM,HCT-116 cell line; HCT-116 cells,48
same,CDK4 % Inhibition at 0.03 μM,[1]; at 0.03 μM,22%
Nc1nc(NC2CCN(S(=O)(=O)c3ccc(Cl)c([N+](=O)[O-])c3)CC2)sc1C(=O)c1c(F)cccc1F [Example P15],CDK2 % Inhibition at 0.03 μM,"CDK2/Cyclin A; 0.03 μM compound, Table 3",50%
same,HCT-116 % Inhibition at 0.1 μM,HCT-116 cell line; [2],30%
same,HCT-116 % Inhibition at 0.25 μM,"HCT-116 cell line; HCT-116, Table 3",34%
same,CDK4 % Inhibition at 0.03 μM,"[1]; 0.03 μM compound, Table 3",65%
Nc1nc(NC2CCN(C(=O)c3cccnc3Sc3ccc(Cl)cc3)CC2)sc1C(=O)c1c(F)cccc1F [Example R43],CDK2 % Inhibition at 0.03 μM,CDK2/Cyclin A; at 0.03 μM,−73%
same,HCT-116 % Inhibition at 0.1 μM,"HCT-116 cell line; HCT-116 cells, at 0.1 μM",4%
same,HCT-116 5 Inhibition at 0.25 μM,HCT-116 cell line; HCT-116 cells,46
same,CDK4 % Inhibition at 0.03 μM,[1]; at 0.03 μM,2%
"CN1CCC(C(=O)N2CCC(Nc3nc(N)c(C(=O)c4c(F)cccc4F)s3)CC2)CC1 [Example D1, 1-(4-Amino-2-{1-[1-(1-methyl-piperidin-4-yl)-methanoyl]-piperidin-4-ylamino}-thiazol-5-yl)-1-(2,6-difluoro-phenyl)-methanone]",Ki,CDK2/Cyclin A,460 nM
same,IC50,HCT-116 cell line; first HCT-116 column (c4),> 5000 nM
same,Ki,[1],130 nM
Nc1nc(NC2CCN(C(=O)NC(=O)c3ccccc3)CC2)sc1C(=O)c1c(F)cccc1F [Example O26],CDK2 % Inhibition At 0.03 μM,CDK2/Cyclin A; 0.03 μM compound,33%
same,HCT-116 % Inhibition at 0.25 μM,"HCT-116 cell line; HCT-116, Table 2",12%
same,CDK4 % Inhibition at 0.03 μM,"[1]; 0.03 μM compound, Table 2",10%
Nc1nc(NC2CCN(S(=O)(=O)c3c(Cl)cc(C(F)(F)F)cc3Cl)CC2)sc1C(=O)c1c(F)cccc1F [Example P82],CDK2 % Inhibition at 0.03 μM,"CDK2/Cyclin A; 0.03 μM compound, Table 3",−23%
same,HCT-116 % Inhibition at 0.1 μM,HCT-116 cell line; [2],17%
same,HCT-116 % Inhibition at 0.25 μM,"HCT-116 cell line; HCT-116, Table 3",24%
same,CDK4 % Inhibition at 0.03 μM,"[1]; 0.03 μM compound, Table 3",12%
CC12CCC(C(=O)N3CCC(Nc4nc(N)c(C(=O)c5c(F)cccc5F)s4)CC3)(OC1=O)C2(C)C (stereo not shown) [Example R67],CDK2 % Inhibition at 0.03 μM,CDK2/Cyclin A; at 0.03 μM,11%
same,HCT-116 % Inhibition at 0.1 μM,"HCT-116 cell line; HCT-116 cells, at 0.1 μM",4%
same,HCT-116 5 Inhibition at 0.25 μM,HCT-116 cell line; HCT-116 cells,40
same,CDK4 % Inhibition at 0.03 μM,[1]; at 0.03 μM,22%
Nc1nc(NC2CCN(C(=O)c3cccs3)CC2)sc1C(=O)c1c(F)cccc1F [Example Q64],CDK2 % Inhibition at 0.03 μM,CDK2/Cyclin A; [3],45%
same,HCT-116 % Inhibition at 0.1 μM,"HCT-116 cell line; 0.1 μM compound, HCT-116, Table 4, 0.1 µM",7%
same,HCT-116 % Inhibition at 0.25 μM,"HCT-116 cell line; HCT-116, Table 4, 0.25 µM",25%
same,CDK4 % Inhibition at 0.03 μM,[1]; [3],48%
